pIC50: −log10 of the molar value.
How the values were obtained:
Assay in all cases: Kinase Screening Assay: Compound IC50 values were determined from 10-point, 1:3 dilution curves starting at either 100 μM or 10 μM with 10 μM ATP, by Reaction Biology Corp. For the whole kinome screen compounds were screened against 340 wild type kinases at a single dose of 1 μM, in duplicate, with 10 μM of ATP by Reaction Biology Corp. The data was averaged and plotted as percentage enzyme …
[1] = molecular target: Tyrosine-protein kinase Blk (Homo sapiens, UniProt P51451)
[2] = molecular target: Mast/stem cell growth factor receptor Kit (Homo sapiens, UniProt P10721)
[3] = molecular target: Tyrosine-protein kinase HCK (Homo sapiens, UniProt P08631)
[4] = molecular target: Platelet-derived growth factor receptor alpha (Homo sapiens, UniProt P16234)
[5] = molecular target: Proto-oncogene tyrosine-protein kinase receptor Ret (Homo sapiens, UniProt P07949)

Measured: pIC50

Sequence of Platelet-derived growth factor receptor alpha (P16234 whole entry): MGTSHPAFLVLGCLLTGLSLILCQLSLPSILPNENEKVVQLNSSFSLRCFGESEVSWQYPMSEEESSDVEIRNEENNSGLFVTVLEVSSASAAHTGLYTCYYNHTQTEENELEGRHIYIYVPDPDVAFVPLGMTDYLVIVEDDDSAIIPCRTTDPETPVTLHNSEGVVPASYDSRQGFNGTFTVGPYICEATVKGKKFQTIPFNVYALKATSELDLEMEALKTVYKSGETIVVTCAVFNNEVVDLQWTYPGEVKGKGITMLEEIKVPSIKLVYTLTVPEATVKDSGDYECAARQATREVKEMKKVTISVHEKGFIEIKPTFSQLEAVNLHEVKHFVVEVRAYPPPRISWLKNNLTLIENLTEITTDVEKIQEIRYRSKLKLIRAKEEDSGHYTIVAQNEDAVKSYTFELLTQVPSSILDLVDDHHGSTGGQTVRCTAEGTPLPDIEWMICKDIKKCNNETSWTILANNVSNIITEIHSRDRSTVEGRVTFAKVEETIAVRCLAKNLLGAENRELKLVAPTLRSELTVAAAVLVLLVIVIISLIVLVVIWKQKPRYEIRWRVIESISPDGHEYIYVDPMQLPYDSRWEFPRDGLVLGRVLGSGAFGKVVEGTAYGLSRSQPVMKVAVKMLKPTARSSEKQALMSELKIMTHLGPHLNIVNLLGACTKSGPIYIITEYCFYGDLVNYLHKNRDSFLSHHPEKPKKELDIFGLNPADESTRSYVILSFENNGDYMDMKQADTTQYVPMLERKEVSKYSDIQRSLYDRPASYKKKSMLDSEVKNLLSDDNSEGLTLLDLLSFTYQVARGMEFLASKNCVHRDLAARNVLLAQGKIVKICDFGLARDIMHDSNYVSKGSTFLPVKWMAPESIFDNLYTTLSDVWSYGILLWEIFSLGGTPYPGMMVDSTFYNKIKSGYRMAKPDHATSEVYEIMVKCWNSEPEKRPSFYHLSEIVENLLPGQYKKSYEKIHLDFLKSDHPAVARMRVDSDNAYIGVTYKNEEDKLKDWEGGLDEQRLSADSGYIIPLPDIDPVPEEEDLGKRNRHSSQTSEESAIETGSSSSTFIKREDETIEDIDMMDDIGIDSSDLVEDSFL
Sequence of Tyrosine-protein kinase HCK (P08631 whole entry): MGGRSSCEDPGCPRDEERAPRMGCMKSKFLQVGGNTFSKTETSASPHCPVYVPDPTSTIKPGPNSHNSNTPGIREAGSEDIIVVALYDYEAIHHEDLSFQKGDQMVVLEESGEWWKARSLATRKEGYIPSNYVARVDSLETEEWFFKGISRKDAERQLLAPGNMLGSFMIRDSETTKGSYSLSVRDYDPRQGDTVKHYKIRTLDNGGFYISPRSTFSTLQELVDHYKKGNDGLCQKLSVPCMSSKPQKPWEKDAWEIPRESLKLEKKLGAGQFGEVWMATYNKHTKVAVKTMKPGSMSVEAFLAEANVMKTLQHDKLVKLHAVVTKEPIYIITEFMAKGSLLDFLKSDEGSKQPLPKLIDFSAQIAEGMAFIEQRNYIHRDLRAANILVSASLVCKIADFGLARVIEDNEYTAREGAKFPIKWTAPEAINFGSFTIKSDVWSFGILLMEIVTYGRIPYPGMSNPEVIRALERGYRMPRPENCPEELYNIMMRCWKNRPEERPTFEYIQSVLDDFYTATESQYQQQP
Sequence of Mast/stem cell growth factor receptor Kit (P10721 whole entry): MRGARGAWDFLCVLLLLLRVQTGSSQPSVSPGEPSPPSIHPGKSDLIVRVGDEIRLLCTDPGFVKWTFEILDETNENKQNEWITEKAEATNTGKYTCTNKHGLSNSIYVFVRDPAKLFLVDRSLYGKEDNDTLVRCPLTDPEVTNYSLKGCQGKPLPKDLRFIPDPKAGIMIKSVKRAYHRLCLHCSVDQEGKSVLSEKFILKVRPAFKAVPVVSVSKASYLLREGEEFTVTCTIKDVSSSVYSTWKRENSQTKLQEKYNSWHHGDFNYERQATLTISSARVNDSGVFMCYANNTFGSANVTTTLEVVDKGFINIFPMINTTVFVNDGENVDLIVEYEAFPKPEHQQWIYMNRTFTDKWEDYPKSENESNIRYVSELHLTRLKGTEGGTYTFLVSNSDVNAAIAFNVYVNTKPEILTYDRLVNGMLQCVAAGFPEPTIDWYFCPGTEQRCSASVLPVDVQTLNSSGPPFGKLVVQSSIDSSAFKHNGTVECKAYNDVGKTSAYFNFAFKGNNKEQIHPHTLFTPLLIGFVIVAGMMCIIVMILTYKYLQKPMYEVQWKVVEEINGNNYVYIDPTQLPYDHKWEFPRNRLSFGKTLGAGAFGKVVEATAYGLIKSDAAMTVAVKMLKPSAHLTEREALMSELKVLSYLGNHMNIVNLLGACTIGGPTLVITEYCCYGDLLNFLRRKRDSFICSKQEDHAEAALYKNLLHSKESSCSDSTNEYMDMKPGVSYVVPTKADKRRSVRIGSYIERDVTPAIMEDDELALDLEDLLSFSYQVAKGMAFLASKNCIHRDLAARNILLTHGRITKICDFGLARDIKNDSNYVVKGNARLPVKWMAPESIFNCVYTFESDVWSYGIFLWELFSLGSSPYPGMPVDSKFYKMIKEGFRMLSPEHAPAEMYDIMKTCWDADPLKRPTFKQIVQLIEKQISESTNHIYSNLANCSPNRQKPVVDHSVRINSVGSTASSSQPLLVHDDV
Sequence of Tyrosine-protein kinase Blk (P51451 whole entry): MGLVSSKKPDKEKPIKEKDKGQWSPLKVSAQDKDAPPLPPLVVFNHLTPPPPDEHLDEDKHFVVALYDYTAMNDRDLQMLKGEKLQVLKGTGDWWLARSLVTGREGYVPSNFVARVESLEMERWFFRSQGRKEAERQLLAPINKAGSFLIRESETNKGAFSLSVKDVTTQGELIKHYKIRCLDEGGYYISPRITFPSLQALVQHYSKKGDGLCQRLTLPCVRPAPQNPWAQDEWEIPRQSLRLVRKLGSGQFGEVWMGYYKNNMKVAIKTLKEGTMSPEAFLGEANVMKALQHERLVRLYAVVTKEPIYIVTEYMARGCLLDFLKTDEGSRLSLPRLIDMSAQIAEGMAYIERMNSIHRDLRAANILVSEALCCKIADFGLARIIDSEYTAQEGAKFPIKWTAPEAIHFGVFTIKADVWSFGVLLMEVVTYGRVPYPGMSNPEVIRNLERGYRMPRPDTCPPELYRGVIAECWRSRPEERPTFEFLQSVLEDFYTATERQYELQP
Sequence of Proto-oncogene tyrosine-protein kinase receptor Ret (P07949 whole entry): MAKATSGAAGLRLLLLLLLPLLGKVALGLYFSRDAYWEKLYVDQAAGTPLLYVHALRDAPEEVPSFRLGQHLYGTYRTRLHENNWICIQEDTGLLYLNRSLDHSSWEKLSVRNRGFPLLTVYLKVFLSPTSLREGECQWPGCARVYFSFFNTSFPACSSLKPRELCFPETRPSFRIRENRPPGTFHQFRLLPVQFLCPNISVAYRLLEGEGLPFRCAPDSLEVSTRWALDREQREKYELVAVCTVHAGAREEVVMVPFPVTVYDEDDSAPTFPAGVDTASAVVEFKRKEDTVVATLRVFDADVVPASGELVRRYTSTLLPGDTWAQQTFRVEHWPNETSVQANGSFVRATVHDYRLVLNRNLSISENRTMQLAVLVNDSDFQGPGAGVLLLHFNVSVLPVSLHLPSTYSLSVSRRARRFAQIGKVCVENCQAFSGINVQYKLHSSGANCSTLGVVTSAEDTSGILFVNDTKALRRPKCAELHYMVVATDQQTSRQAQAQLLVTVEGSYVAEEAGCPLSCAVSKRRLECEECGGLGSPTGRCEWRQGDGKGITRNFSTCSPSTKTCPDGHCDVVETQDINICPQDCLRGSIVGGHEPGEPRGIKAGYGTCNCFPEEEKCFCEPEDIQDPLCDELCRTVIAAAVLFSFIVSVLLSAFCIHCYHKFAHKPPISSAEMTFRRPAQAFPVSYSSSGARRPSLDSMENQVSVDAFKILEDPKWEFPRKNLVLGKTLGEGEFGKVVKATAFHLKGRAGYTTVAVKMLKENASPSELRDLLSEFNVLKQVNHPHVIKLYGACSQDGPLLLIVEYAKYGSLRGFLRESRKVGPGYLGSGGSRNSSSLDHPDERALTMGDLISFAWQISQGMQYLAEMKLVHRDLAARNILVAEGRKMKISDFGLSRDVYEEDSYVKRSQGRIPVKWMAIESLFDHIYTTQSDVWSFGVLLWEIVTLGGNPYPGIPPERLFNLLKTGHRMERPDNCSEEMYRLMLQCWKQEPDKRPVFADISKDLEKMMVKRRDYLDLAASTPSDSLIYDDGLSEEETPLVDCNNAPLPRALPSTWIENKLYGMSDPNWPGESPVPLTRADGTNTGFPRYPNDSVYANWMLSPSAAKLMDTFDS

Cc1ccc(-c2nn(CCN3CCC(N(C)C)CC3)c3ncnc(N)c23)cc1
< 6.00: all assays above

Source: ChEMBL document CHEMBL5726952, “Compounds” (2019)
